Measured values: PMC12639897 (Journal of Translational Medicine, 2025)

Biological target: T1, β-catenin (Homo sapiens, UniProt P35222)
T1 sequence (P35222 2-781): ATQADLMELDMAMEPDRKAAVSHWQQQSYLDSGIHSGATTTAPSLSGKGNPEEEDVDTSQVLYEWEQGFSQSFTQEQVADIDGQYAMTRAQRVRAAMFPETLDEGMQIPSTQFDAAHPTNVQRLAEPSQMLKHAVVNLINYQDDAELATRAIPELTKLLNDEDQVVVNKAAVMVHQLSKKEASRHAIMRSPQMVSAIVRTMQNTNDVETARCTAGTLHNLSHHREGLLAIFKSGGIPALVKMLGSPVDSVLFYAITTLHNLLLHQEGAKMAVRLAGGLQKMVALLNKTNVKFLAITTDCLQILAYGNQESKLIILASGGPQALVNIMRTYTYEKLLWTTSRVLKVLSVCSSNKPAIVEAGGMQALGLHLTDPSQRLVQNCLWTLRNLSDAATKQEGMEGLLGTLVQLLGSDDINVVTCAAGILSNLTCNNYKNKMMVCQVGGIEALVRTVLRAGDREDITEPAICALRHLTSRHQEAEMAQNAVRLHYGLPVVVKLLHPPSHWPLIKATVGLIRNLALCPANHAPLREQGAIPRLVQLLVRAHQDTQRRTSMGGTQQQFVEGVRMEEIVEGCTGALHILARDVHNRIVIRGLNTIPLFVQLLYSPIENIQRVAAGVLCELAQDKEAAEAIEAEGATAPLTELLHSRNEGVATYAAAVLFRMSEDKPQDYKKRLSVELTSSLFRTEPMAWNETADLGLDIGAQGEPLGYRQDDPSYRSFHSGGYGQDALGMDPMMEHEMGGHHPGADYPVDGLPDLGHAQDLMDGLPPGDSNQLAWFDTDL
Test: Biolayer interferometry
Assay type: binding

Cc1cccc2c3c(ccc12)C1=C(C(=O)C3=O)[C@@H](C)CO1 [DHTS, 15,16-Dihydrotanshinone I]
Kd: 14.6 µM
